For data set [1], the target named is T1, Poly(ADP-ribose) synthetase (Bos taurus, UniProt P18493).
T1 construct: Poly (ADP-ribose) synthetase from calf thymus; from tissue; host or cells: calf thymus
The settings on record: cited from earlier work.

Data set [2] relates to cells exposed to radiation. The settings on record: cited from earlier work.
Another data set relates to V79 cells. The data set can be described thus: In vitro radiosensitizing activity at 37°: shoulder modifying effects (reduction in Dq). Type of data set: cell-based. The settings on record: for Shoulder Modification (% Reduction in DQ): hypoxic V79 cells, class symbols. The method, then: The shoulder region represents the inherent repair capabilities of a given cell line. […] To determine the hypoxic x-ray dose response, cells are rendered hypoxic four hours prior to the addition of the test compound by placing them in a 37° C. incubator within an anaerobic glove chamber (Forma). […] Drug is added (0.1 ml into 2 ml media in petri dish) within the anaerobic chamber and drug treatment is at the highest nontoxic dose for one hour at 37°. The oxic x-ray dose response is determined in a similar manner except that all manipulations are carried out in air. […] Cytotoxicity controls (drug only, no irradiation) are included as well as oxic and hypoxic untreated controls (irradiation only, no drug). Immediately following irradiation, cells are rinsed twice with 2 ml fresh media prior to the addition of 5 ml of fresh media. The cells are then incubated at 37° C. After six days, dishes are stained with crystal violet and colonies of 50 or more cells are counted to determine percent surviving cells versus x-ray dose. […] This is expressed by percent reduction in Dq where Dq is defined as the dose at the intersection of the regression line for the logarithmic portion of the survival curve with the 100% survival level. This is taken to represent the width of the shoulder region of the survival curve.

For the next data set, the system named is KHT fibrosarcoma tumors. As to the kind of experiment: In vivo assay for radiosensitization activity. Also on record: species or system hybrid mice (B6C3F1). The settings on record: for In Vivo Radiosensitizing Activity: KHT tumors in mice, relative to misonidazole. The procedure: In Vivo Assay for Radiosensitization Activity
For this assay KHT fibrosarcoma tumors in hybrid mice (B6C3F1) weighing 20-25 g are used. The mice are randomized and implanted SC with the appropriate tumor brei on Day 0 (one implant/mouse). Samples from each donor tumor and/or from the final brei are incubated in thioglycolate media as a check for gross bacterial contamination. On Day 8 tumors are measured in two dimensions with calipers and animals with tumor masses in the range of 500 to 700 mg are selected for the assay. At this point the tumors contain approximately 20% hypoxic cells.
The test agents are dissolved in any of several vehicles at a fixed injection dose equal to 90-100% of the maximum tolerated dose. Additional suitable controls of test compound (no irradiation) and vehicle-injected and irradiated mice are also included. Mice are irradiated at a dose of 1700 RADs at various intervals both prior to and after intraperitoneal administration of the test agents.
By using these intervals, an indication of both the optimum time to irradiate and the degree of sensitization are obtained. Irradiation of the KHT tumors is by whole body irradiation of animals in movement restricting jigs at different total exposures as indicated. The x-ray source is a Phillips 320 KV instrument with a half-value thickness of 2.0 mm copper and a target to source distance of 17 inches, with a delivery rate of 2.0 Gy/minute. Animals are monitored for signs of acute toxicity after treatment.
After incubation for 12-16 days at 37° and staining, the colonies are counted. The data are expressed as % control versus time.

For data set [3], the target named is T1, Poly(ADP-ribose) synthetase. As to the kind of experiment: Inhibition of Poly(ADP-ribose) synthetase. Format: biochemical, calf.
Method: The enzyme assay is performed by placing the following in small glass tubes kept at 4°: 100 μl of buffer consisting of 0.5M Tris-HCl pH 8.0, 50 mM MgCl2, and 5 mM dithiothreitol; 50 μl of 1 mM [^3 H]nicotinamide adenine dinucleotide having a specific activity of 15 μCi/μmol; 100 μl of calf thymus DNA (0.3 mg/ml in water); 50 μl of calf thymus histone (Sigma, Type IIA, 0.5 mg/ml); 50 μl of inhibitor or inhibitor solvent; 150 μl of enzyme. The components are thoroughly mixed and warmed to 30° C. in a water bath. After 15 minutes the reaction is stopped by adding 2 ml of ice cold 15% trichloroacetic acid and the tubes are placed on ice for 15 minutes. The precipitate is collected on glass fiber filters and washed five times with ice cold 15% trichloroacetic acid. The filters were dried and radioactivity determined in a liquid scintillation counter.
In the next data set the test system is L1210 cells. As to the kind of experiment: Inhibition of the repair of radiation-induced DNA damage as assessed by alkaline elution. Format: cell-based. The procedure:
Inhibition of the Repair of Radiation-Induced DNA Damage as Assessed by Alkaline Elution The basic alkaline elution assay is carried out according to the procedure of K. W. Kohn, […]. Erickson, and L. A. Zwelling in DNA Repair: A Laboratory Manual of Research Procedures (eds. E. C. Freidburg and […]) with slight modifications. Briefly, suspension cultures of exponentially growing L1210 cells (total of 4×10^6 cells) are labeled with 0.02 μCi/ml of [^14 C] thymidine plus 1 nmol/ml of unlabeled thymidine for 24 hours prior to use. L1210 cells used as an internal standard are grown in media supplemented with 0.1 μCi/ml of [^3 H]thymidine and 1 nmol/ml unlabeled thymidine. For the elution protocol cells are removed from the culture flasks, centrifuged, and resuspended in fresh media. Drug treatment for experimental cells is for one hour at 37°. After the treatment period control and drug-treated cells are given a dose of 10 Gy of x-rays and incubated at 37° C. for 10 minutes to allow for repair. Samples consisting of 5×10^5 cells contained in 5 ml of ice cold PBS are deposited directly on 25 mm polycarbonate filters (2 micron pore size). The cells are washed with 5 ml of cold PBS, then lysed by the addition of 5 ml of lysis solution (0.2% SDS, 0.25M tetrasodium EDTA pH 9.7). All procedures commencing at the time of lysis are carried out in the dark. Subsequent to lysis samples are treated with 2 ml of lysis solution containing proteinase-K (0.5 mg/ml) for one hour. The filters are then eluted with tetrapropyl ammonium hydroxide/0.025M EDTA (free acid form)/0.1% SDS, pH 12.1, at a constant flow rate of 0.037 ml/min. Fractions of 2 ml are collected in scintillation vials. […] To each fraction collected and the filter solution 15 ml of modified Ready-Gel scintillation fluid containing 0.7% acetic acid is added. The frequency of single-stranded DNA breakage was calculated as described by Kohn, et al. The data is corrected for the number of single-strand breaks in the […] samples (~20%).

The test system of a further data set is tumors. The settings on record: cited from earlier work.
The test system of a further data set is hypoxic tumor cells. The settings on record: cited from earlier work.
The conditions of data set [4]: cited from earlier work; for peripheral neuropathy and convulsions: mice.
The mark [5] stands for this setting: L1210 cells, 10 Gy x-rays, class symbols.

pIC50: −log10 of the molar value. “Also recorded” adds a separate entry of the source. Like-named read-outs stand apart in the source and are kept apart here.

T1 sequence (P18493 whole entry): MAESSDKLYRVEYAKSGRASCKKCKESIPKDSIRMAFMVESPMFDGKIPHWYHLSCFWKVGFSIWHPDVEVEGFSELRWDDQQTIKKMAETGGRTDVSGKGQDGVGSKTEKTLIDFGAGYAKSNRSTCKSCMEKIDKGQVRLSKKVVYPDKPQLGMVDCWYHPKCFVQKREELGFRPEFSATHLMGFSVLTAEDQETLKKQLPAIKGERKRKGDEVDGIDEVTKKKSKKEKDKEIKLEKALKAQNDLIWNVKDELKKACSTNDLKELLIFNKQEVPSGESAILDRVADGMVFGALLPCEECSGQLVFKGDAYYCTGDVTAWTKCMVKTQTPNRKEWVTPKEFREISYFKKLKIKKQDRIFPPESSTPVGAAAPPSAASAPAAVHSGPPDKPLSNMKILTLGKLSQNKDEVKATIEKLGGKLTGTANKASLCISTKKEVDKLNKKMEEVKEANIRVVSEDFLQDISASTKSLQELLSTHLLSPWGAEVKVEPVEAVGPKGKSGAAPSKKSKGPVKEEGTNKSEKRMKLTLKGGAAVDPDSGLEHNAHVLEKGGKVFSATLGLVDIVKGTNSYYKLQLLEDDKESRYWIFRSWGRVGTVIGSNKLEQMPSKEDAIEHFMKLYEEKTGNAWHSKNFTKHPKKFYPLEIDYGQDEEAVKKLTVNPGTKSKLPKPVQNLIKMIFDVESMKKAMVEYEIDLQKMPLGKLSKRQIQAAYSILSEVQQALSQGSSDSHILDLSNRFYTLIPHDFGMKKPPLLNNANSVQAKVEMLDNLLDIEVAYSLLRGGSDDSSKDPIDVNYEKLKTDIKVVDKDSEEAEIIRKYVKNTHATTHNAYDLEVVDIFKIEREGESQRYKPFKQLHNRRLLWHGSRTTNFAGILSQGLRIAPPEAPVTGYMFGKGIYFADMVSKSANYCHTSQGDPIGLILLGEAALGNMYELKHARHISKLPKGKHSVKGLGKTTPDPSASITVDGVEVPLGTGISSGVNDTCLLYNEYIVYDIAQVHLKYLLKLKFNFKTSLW

Take `NC(=O)c1cccc(N)c1` [3-aminobenzamide]: the “inhibition of poly(ADP-ribose)synthetase” value in data set [1] is reported as “previously known best inhibitor of poly(ADP-ribose)synthetase”. In addition, the “killing of cells by DNA-damaging agents” value in data set [2] (certain cell lines) is recorded as “enhanced killing of these cells by the damaging agents”. The “inhibition of postirradiation repair” value in [2] is given as “inhibit this postirradiation repair process, thereby sensitizing cells to the lethal effects of radiation; also recorded: inhibited”. Besides, in the data set on V79 cells, the “reduction of Dq” value was “does not reduce Dq”.

As usually defined, the pIC50 is the IC50 on a negative log10 scale, so that one unit is a factor of ten. Regarding `O=C1NCCc2c(O)cccc21` [Example II, 3,4-Dihydro-5-hydroxy-1(2H)-isoquinolinone], the “In Vivo Radiosensitizing Activity” value with KHT fibrosarcoma tumors is recorded as “+”. In addition, the pIC50 in [3] (30° C., 15 minutes, [3H]NAD, read-out: IC50) was 7.00. Also, the “Shoulder Modification (% Reduction in DQ)” value in the data set on V79 cells is recorded as “+ (15-29%)”. Further, the “Frequency of Unrepaired Strand Breaks” value in the data set with L1210 cells (setting [5]) is given as “++ (201-300)”.

In the case of `Cc1cccc2c1CCNC2=O` [Example XII, 3,4-Dihydro-5-methyl-1(2H)-isoquinolinone], the “In Vivo Radiosensitizing Activity” value in the data set with KHT fibrosarcoma tumors was “+”. Besides, the “Enhancement Ratio (in vivo)” value with KHT fibrosarcoma tumors (in vivo) is 1.4-1.5. The Optimum time preirradiation with KHT fibrosarcoma tumors (time of administration before irradiation) fell in the range of 2 to 3 h. Also, the pIC50 in [3] was 6.80. In addition, the “Shoulder Modification (% Reduction in DQ)” value with V79 cells was “++ (30-44%)”. Moreover, the “% Reduction in Dq (37°)” value in the data set on V79 cells (numeric) was 30%. For the same compound, the “Frequency of Unrepaired Strand Breaks” value in the data set on L1210 cells (setting [5]) is reported as “++++ (401-500)”; in the data set on L1210 cells (numeric) it was 470 Rad. Eq.

In the case of `CNC=O` [N-methylformamide], in the data set on tumors, the “sensitization of tumors to radiation” value is recorded as “sensitize tumors to the lethal effects of radiation”.

In the case of `Cc1ncc([N+](=O)[O-])n1CCO` [metronidazole, 2-methyl-5-nitro-1H-imidazole-1-ethanol], the “radiosensitizing activity” value with hypoxic tumor cells is “effective as radiosensitizers for hypoxic cells in vivo; also recorded: active both in vitro and in vivo as a radiosensitizer”. The “peripheral neuropathy and convulsions” value in data set [4] is “peripheral neuropathy effects and convolusions in mice”. In data set [4] (mouse, in vivo), the CNS side effects result is listed as “serious adverse CNS side effects” and the “CNS toxicity, use in humans” value is given as “limiting factor for their use in humans”.

As to `COCC(O)Cn1ccnc1[N+](=O)[O-]` (stereo not drawn) [misonidazole, α-(methoxymethyl)-2-nitro-1H-imidazole-1-ethanol], in the data set on hypoxic tumor cells, the “radiosensitizing activity” value is “of value as a radio-sensitizer for hypoxic tumor cells; also recorded: effective as radiosensitizers for hypoxic cells in vivo”. In addition, the CNS side effects entry in [4] (administered to mice) was “serious adverse CNS side effects”. The “peripheral neuropathy and convulsions” value in [4] is “peripheral neuropathy effects and convolusions in mice”. The “CNS toxicity, use in humans” value in [4] (use in humans) is recorded as “limiting factor for their use in humans”.

Values taken from patent publication US5177075A, “Substituted dihydroisoquinolinones and related compounds as potentiators of the lethal effects of radiation and certain chemotherapeutic agents; selected compounds, analogs and process” (priority 1991, dated 1993).
